Experiments:
Type in all cases: cell-based
[1] = tested on: Human breast tumor SUM149 cells; test: Annexin V/7-AAD apoptosis with or without Z-VAD-FMK; details: 2.5 to 20 μM, 48 h, with Z-VAD-FMK pan-caspases inhibitor
Description: Human breast tumor SUM149 cells were plated in dishes at a concentration of 10^6 cells/[…] Cells were treated with compound 3 or compound 4 (2.5 to 20 μM) for 48 h, with or without Z-VAD-FMK, a pan-caspases inhibitor. Cells were double stained with annexinV-FITC and 7-AAD to measure cell apoptosis.

[2] = tested on: caspase-3 and caspase-7 in MCF-10A cells; test: Caspase 3/7 activation (Caspase-Glo 3/7) in MCF-10A normal cells; details: Homo sapiens, R=RLU at 20 μM/RLU at 0 μM, 24 h, read-out: Caspase 3/7 activation R (RLU fold increase from untreated cells)
Description: (§1) Human normal mammary epithelial MCF-10A cells were plated in a 96 well plate at 10000 cells/100 μL at 37° C. in 5% CO2. Serial dilutions of drugs (compounds 1, 3 or 4) ranging from 20 μM to 300 nM were added at day 0. Active caspase-3 and caspase-7 were measured in triplicate after 24 h treatment by incubating 50 μL of the Caspase-Glo 3/7 reagent for 60 min at 25° C. This reagent containing the proluminescent tetrapeptide sequence DEVD in a cell lysis buffer (Promega) (FIG. 9).
(§2) The calculated values R correspond to Relative Luminescence Units (RLU) fold increase from untreated cells (R=RLU at 20 μM/RLU at 0 μM).
(§3) Caspase 3/7 activation in MCF-10A and HME-1 normal cells was also measured.

[3] = tested on: caspase-3 and caspase-7 in HME-1 cells; test: Caspase 3/7 activation (Caspase-Glo 3/7) in HME-1 normal cells; details: Homo sapiens, HME1, R=RLU at 20 μM/RLU at 0 μM, 24 h, read-out: Caspase 3/7 activation R (RLU fold increase from untreated cells)
Description: as §1, with “HME-1” for “MCF-10A”, “8).” for “9).”
as §2, §3

[4] = tested on: Human normal mammary epithelial MCF-10A cells; test: Effect on growth of normal cells (alamar blue), MCF-10A; details: calculated on the basis of cell growth inhibition
Description: All biological experiments (Examples 2 to 9) have been performed with recommended cell line specific culture medium. For SUM149 and L226, culture medium is supplemented with 10% Fetal Calf Serum. For HME-1 and MCF-10A, culture medium is supplemented with 5% Horse Serum.
Human normal mammary epithelial MCF-10A cells were plated in a 96 well plate at 3000 cells/100 μL at 37° C. in 5% CO2. Serial dilutions of drugs (compounds 1, 3 or 4) ranging from 20 μM to 300 nM were added at day 0 and day 3. The number of viable cells was determined in triplicate at day 5 by incubating 10 μL of the alamar blue staining solution for 2 hours at 37° C. (FIG. 5).
IC50 values of compounds 1-14 for the inhibition of MCF-10A and HME-1 normal cells growth were also measured (according to the experimental procedure of Examples 4 and 5): […]

[5] = tested on: Cancer stem cells (CSCs); test: Aldefluor assay of cancer stem cells (ALDH+ cells), FACS
Description: Cancer stem cells (CSCs) are thought to contribute to tumor initiation, maintenance, resistance to therapy, and metastasis progression. Treatment with drugs enrich in resistant CSCs. In vitro, breast CSCs express high level of aldehyde dehydrogenase-1 (ALDH1), which can be detected by using a commercial assay (CSCs are “Aldefluor” positive). Briefly, cells were incubated in Aldefluor assay buffer containing ALDH substrate (BAAA (BODIPY®—aminoacetaldehyde), 1 μmol/L per 1×10^6 cells). Negative control was done in the presence of diethylaminobenzaldehyde (DEAB), a specific ALDH inhibitor. Cells were then incubated for 40 min at 37° C. Cells were analyzed with the LSRII flow cytometer (Becton-Dickinson). PI (Propidium Iodide) exclusion was used to gate viable cells.

[6] = tested on: Thirty eight validated cells lines; test: High throughput cell growth analysis on cell line panel; details: panel of cell lines
Description: Thirty eight validated cells lines, including BXPC3 cells, DU145 cells, OPM2 cells, U-2-OS cells, PLCPRF5 cells, A549 cells, SUM149 cells, HepG2 cells, L389 cells, HGC27 cells, TOV-112D cells, Messa cells, Karpas 299 cells, A498 cells, HCT-116 cells, H1299 cells, Hep2 cells, DLD1 cells, HUT78 cells, AGS cells, A4573 cells, ACHN cells, Panc-1 cells, A375 cells, BT-20 cells, L226 cells, MDAMB231 cells, U118 cells, PC-3 cells, SW579 cells, CLS354-4 cells, Calu-6 cells, U87MG cells, MeWO cells, HUVEC, HME-1 cells, MCF10-A cells and fibroblasts, were plated at 3000 cells/100 μL at 37° C. in 5% CO2 in recommended medium containing 10% FCS.
Compounds 12, 4, 11, 3, 13, 6, 8, 14, 1 and 7, described in the above examples, and DMSO as a control, were tested at various concentrations and % inhibition of cell growth at 10 μM was more particularly studied.

Structure (SMILES)	effect of Z-VAD treatment on compound induced apoptosis (Annexin V positive cells) [1]	fold induction at 20 µM [2]	fold induction at 20 µM [3]	IC50 [4] [µM]	pool of CSC (ALDH+ cells) after treatment ([5]; 0.6 μM, DMSO control 2.6%) [%]	aldefluor ratio (percent ALDH+ cells treated vs DMSO) ([5]; FIG. 12B)	cell lines studied that were sensitive [6] [%]	IC50 ([6]; recommended medium containing 10% FCS, read-out: IC50 of cell growth inhibition on cell line panel) [µM]
Cc1cc(C)c(C)c(S(=O)(=O)N2CCSC(C)(C)[C@@H]2C(=O)NO)c1C [Compound 4, (3S)—N-hydroxy-4-[(2,3,5,6-tetramethylphenyl)sulfonyl]-2,2-dimethyl-3-thiomorpholine carboxamide]	fully impaired	1	1	20				
Cc1c(C)c(C)c(S(=O)(=O)N2CCSC(C)(C)[C@@H]2C(=O)NO)c(C)c1C [Compound 12, (3S)—N-hydroxy-4-[(2,3,4,5,6-pentamethylphenyl)sulfonyl]-2,2-dimethyl-3-thiomorpholine carboxamide]		1.1	1.2	15	0.4	reduces the aldefluor ratio	86	< 1

— patent publication US9193699B2, “Apoptosis inducing compounds” (INSTITUT NATIONAL DE LA SANTE ET DE LA RECHERCHE MEDICALE …, priority 2011, dated 2015)
